From patent US20220184220A1, “XYLOGLUCAN-CONTAINING PRODRUGS AND METHODS OF MANUFACTURE AND USE THEREOF” (priority 2019, published 2022)
Entries after “also recorded” stand apart in the source; their conditions may differ.

Experiments:
[1] = test system: acute self-limiting colitis in mice; assay: Histological scoring of inflammation, C. rodentium colitis in germ-free mice colonized with B. ovatus (Example 3); assay type: in vivo; conditions: n=2; for Crypt Height / Epithelia Hyperplasia / Epithelial Injury / Fibrosis / Globlet cell / Inflamm / Mitotic Act.: gavage 3 days, prednisolone forms 1 mg/kg/day, dexamethasone forms 0.6 mg/kg/day; for Total Score: sum of each scoring category
[2] = test system: acute self-limiting colitis in mice; assay: Gross visual observations of the murine abdomen (Example 3); assay type: in vivo; conditions: necropsy after 3 days of steroid gavage
Source text: Under isoflurane anesthesia, mice were terminally bled by cardiac puncture and then humanely euthanized by cervical dislocation. All collected blood was separated into serum that was dedicated for steroid detection and optimization of steroid detection procedures. Following euthanasia, a midline laparotomy was made and gross observations of the abdominal regions were photo-documented. Approximately 1 cm sections of the cecum, and the most proximal and distal portions of the colon were divided for histological examination. Cecal and colonic tissues were flash frozen in liquid nitrogen for future immunological protein quantification. Digesta extracted from the colon was stored at −80° C. for future steroid detection, and fresh feces from the cages were used to enumerate Bacteroides ovatus and Citrobacter rodentium by microbiological techniques on the same day as the necropsy.

[3] = Dissolution of steroid in sterile water for gavage; assay type: physicochemical; conditions: dose in 100 μL gavage volume
Experimental: The average weight of the mice (27.9 g) was calculated on the second day of the Citrobacter rodentium infection, and this average weight was used to calculate the steroid concentrations for all treatments. The steroids were dissolved as best as possible in sterile water, and stored at 4° C. until needed. Steroids were administered by gavage in […] for 3 consecutive days at the same time each morning (24 hrs between treatments) for the final 3 days of the C. rodentium infection. Mice in the control groups (without drug intervention) received water by gavage in 100 μL volumes. Gavage needles for drug administration were coated in sucrose solution (1 g/mL, syringe-filter sterilized) as a refinement procedure.

[4] = test system: acute self-limiting colitis in mice; assay: Histological scoring of inflammation, C. rodentium colitis in mice with normal enteric microbiota (Example 7); assay type: in vivo; conditions: CR+/BO+ mice; prednisolone forms 1 mg/kg, dexamethasone forms 1.5 mg/kg (equivalent); one day following steroid treatment
Experimental: Approval to conduct this project was obtained from the AAFC LeRDC Animal Care Committee (Animal Use Protocol 1911). […] The methods employed were essentially the same as those described in Example 3, except that the Citrobacter rodentium (CR) was administered to incite acute self-limiting colitis in mice prior to colonization with Bacteroides ovatus (BO). […] FIG. 20 provides a schematic illustrating the study design and timelines.
As in the study described in Example 3, there were gross histopathological differences in the distal colon tissue obtained from mice in the different treatment groups. Histological scoring of inflammation was performed by a board-certified pathologist blinded to treatment. […] Following CR infection, with no treatment, neutrophil infiltration was evident and the histological score was 10. […] Evidence of enhanced amelioration of protein markers of inflammation were also observed. […] IL-12p70 is a pro-inflammatory cytokine involved in cell-mediated immunity. For example, it is known as a T cell-stimulating factor, which can stimulate the growth and function of T cells. Moreover, it stimulates the production of interferon-gamma (IFN-γ) and tumor necrosis factor-alpha (TNF-α) from T cells and natural killer (NK) cells, and reduces IL-4 mediated suppression of IFN-γ.

## C[C@]12C=CC(=O)C=C1CC[C@@H]1[C@@H]2[C@@H](O)C[C@@]2(C)[C@H]1CC[C@]2(O)C(=O)CO [prednisolone, reference compound]
[1]; cecal tissue
  Crypt Height: 1.5
  Epithelia Hyperplasia: 1.5
  Epithelial Injury: 1
  Fibrosis: 1
  Globlet cell: 0.5
  Inflamm: 1.5
  Mitotic Act.: 1
  Total Score: 8
[1]; distal colon
  Crypt Height: 1.5
  Epithelia Hyperplasia: 1.5
  Epithelial Injury: 2
  Fibrosis: 1.5
  Globlet cell: 0.5
  Inflamm: 1.5
  Mitotic Act.: 1.5
  Total Score: 10
[1]; proximal colon
  Crypt Height: 2
  Epithelia Hyperplasia: 1.5
  Epithelial Injury: 2
  Fibrosis: 0
  Globlet cell: 0.5
  Inflamm: 1.5
  Mitotic Act.: 1.5
  Total Score: 9
[2]
  blood present in ceca (gross observation): more blood present in ceca than dexamethasone treatment; also recorded: more blood in cecal area
[3]
  dissolution in water: did not fully dissolve in water
[4]
  histological score, distal colon: 18
